Results on three compounds are retold here after patent publication US5100462A, “Method of counteracting ethylene response by treating plants with diazocyclopentadiene and derivatives thereof” (North Carolina State University, priority 1991, dated 1992).

For data set [1], the system named is ethylene binding site in tobacco leaves. The data set can be described thus: Ethylene binding (14C-ethylene) in tobacco leaves, incl. Scatchard DACP-ethylene competition. To be noted: for Binding (% of untreated control), Tobacco leaves, Dark / Binding (% of untreated control), Tobacco leaves, Light: measured 48 hours after exposure. Further details: species or system Nicotiana tabacum L. The protocol:
(§1) Plant material was exposed to ^14 C-ethylene in the presence or absence of unlabeled ethylene. Usually exposure was for two hours. After this time, material was aired for two minutes and placed in 250 or 500 ml jars containing mercury perchlorate in liquid scintillation vials which also contained fiberglass filter to increase the surface area for 24 hours. The vials were then removed, scintillation fluid added and the samples counted in a liquid scintillation counter. All measurements were corrected for unbound ethylene. When the number of binding sites inactivated by DACP in the light were desired, samples were aired 48 hours before measuring ethylene binding to allow the DACP not undergoing a light reaction to diffuse away.
(§2) Experiments in the Examples below were carried out under normal laboratory fluorescent lights. The light intensity was 560 lux at the laboratory bench level. Normally treatment was inside 2.5 liter desiccators and the amount of light reaching the plant material was measured to average 448 lux or 80% of the incident light. When more light was needed, desiccators were moved to a position where the intensity was 2700 lux outside the desiccators. The amount of light reaching the plant material was measured to be 2160 lux.
Tobacco leaves (Nicotiana tabacum L.) were grown in a greenhouse. Leaves were harvested when approximately 10 cm in length, the midrib removed and allowed to stand overnight for wound ethylene to subside. After incubating tobacco leaves with DACP for three hours under fluorescent lights at 448 lux of fluorescent light, some of the ethylene binding site present, as assayed by ^14 C-labeled ethylene disappears. As the concentration of DACP increases, the amount of binding site remaining decreases. The curve (FIG. 1) appears to be biphasic with a decrease of 80% of binding between 0 and 40 μl/l at DACP. Addition of an additional 80 μl/l of DACP reduced binding further 10%. […] In all previous cases, compounds diffused from the binding site with a half life of three to six hours.
(§3) Scatchard plots are used to determine the binding constants of compounds. An underlying assumption using this method is that the reaction is reversible. Using DACP in the light leads to an irreversible complex and the Scatchard plot is not valid. It can be made and compared with the competition in the dark to evaluate the relative effectiveness of the compound in the light versus dark. FIGS. 6 and 7 represent plots for tobacco leaves and mung bean sprouts in the light and in the dark. It can be seen from these two figures that there are apparently two classes of sites present in both tobacco leaves and mung bean sprouts. The values are much lower in the light which would be expected if the site is being permanently removed. A greater portion of the binding sites appears to be occupied in the competition experiments (FIGS. 6, 7) than in experiments in which added ethylene is not present (FIGS. 3, 4, 5).

Data set [2] deals with ethylene binding site in mung bean sprouts. The data set can be described thus: Ethylene binding (14C-ethylene) in mung bean sprouts, incl. Scatchard DACP-ethylene competition. Further details: species or system Vigna radiata L. The settings on record: for Binding (% of untreated control), Mung bean sprouts, Dark / Binding (% of untreated control), Mung bean sprouts, Light: measured 24 hours after exposure. The protocol:
as §1
Mung beans (Vigna radiata L.) were germinated in the dark for four days. At this point 10-12 sprouts were placed in 3 liter containers, and treated with DACP and ethylene as indicated in the individual Examples below. Ethylene was changed each day and seedlings were retreated with DACP at seven days. The height was measured at ten days. Light was 560 lux throughout the experiment after the four-day germination in the dark.
as §2, §3

The test system of the next data set is mung bean seedlings. Put plainly: Growth inhibition of mung bean seedlings by ethylene. The class given is in vivo, Vigna radiata L. The protocol:
Mung beans (Vigna radiata L.) were germinated in the dark for four days. At this point 10-12 sprouts were placed in 3 liter containers, and treated with DACP and ethylene as indicated in the individual Examples below. Ethylene was changed each day and seedlings were retreated with DACP at seven days. The height was measured at ten days. […]

In another data set the test system is Tomato fruit. Put plainly: Tomato ripening (red/green reflectance ratio). Format: in vivo, Lycopersicon esculentum, Mill. To be noted: 25° C. The protocol: Plant Material. Tomatoes (Lycopersicon esculentum, Mill) were obtained from a wholesale distributor.
Chemicals. DACP was prepared as previously described and kept as a 4-8% solution in hexane. Treatment was in a 3 l container. DACP was pipetted as a hexane solution onto paper towel to facilitate evaporation. After sealing, the containers were kept in darkness or exposed to 448 lux of fluorescent light for 24 hours. After 24 hours, containers were aired out for 24 hours. Those containers kept in darkness were aired in darkness. Subsequently the ethylene treatment was started and all samples were kept in 448 lux of fluorescent light. The gas phase was changed each day.
Ripening. Ripening was measured with an Agtron reflectance spectrophotometer (Magnson Engineers, Inc., Instruments Division, San Jose, Calif.) which measures the ratio of red/green light reflected from the tomato.

Another data set relates to Cut purple petunias. Put plainly: Cut flower longevity, petunias. The class given is in vivo, Petunia hydrida. To be noted: volatile DACP. The protocol:
Cut purple petunias (Petunia hydrida) are treated with volatile DACP in the same manner as described above.

The subject of another data set is Carnation. Put plainly: Cut flower longevity, carnation. The class given is in vivo, Dianthus caryophyllus. The settings on record: volatile DACP.
In another data set the test system is Potted poinsettia. The data set can be described thus: Protection of potted poinsettia from ethylene. Format: in vivo, Euphorbia pulcherima. To be noted: volatile DACP. The protocol: Potted poinsettia (Euphorbia pulcherima) is treated with volatile DACP in the same manner as described above, and then exposed to ethylene to determine if the DACP would protect the poinsettia from the ethylene.

A further data set has as its system beans. The data set can be described thus: Ethylene-induced leaf abscission in beans. Format: in vivo, Phaseolus vulgaris. The settings on record: DACP vapor.
A further data set relates to ethylene binding. To be noted: Plant Growth Reg. 9, 157-164 (1990); cited from earlier work.
Where [3] appears, read: DARK, DACP 120 ul/l + 10 μl/l E.
The mark [4] stands for this setting: DARK, DACP 120 ul/l as a gas, no ethylene.
The mark [5] stands for this setting: LIGHT, DACP 120 ul/l + 10 μl/l E.
The mark [6] stands for this setting: LIGHT, DACP 120 ul/l + 100 μl/l E.
Where [7] appears, read: LIGHT, DACP 120 ul/l as a gas, no ethylene.

For `[N-]=[N+]=C1C=CC=C1` [Diazocyclopentadiene], the “Binding (% of untreated control), Tobacco leaves, Dark” value in [1] was 100 % of untreated control. The “Binding (% of untreated control), Tobacco leaves, Light” value in data set [1] is listed as 27 % of untreated control. Also, the “further reduction of binding” value in data set [1] (additional 80 μl/l of DACP, three hours at 448 lux (FIG. 1), 180 min) stood at 10%. In data set [1] (between 0 and 40 μl/l DACP, three hours at 448 lux fluorescent light (FIG. 1), 180 min), this compound gave a decrease of binding of 80%. For the same compound, the “half life of reappearance of the binding site after DACP is removed” value in data set [1] (in the dark, 245 μl/l (gas) DACP (FIG. 2A)) is reported as “about 15 hours”. Also, the “binding site after incubation with DACP” value in data set [1] (incubated in darkness, 245 μl/l (gas) DACP (FIG. 2A)) is on record as “most of the binding site disappears”. Further, the “reappearance of the binding site after DACP is removed” value in [1] (leaves preincubated in the light before removing the DACP (FIG. 2A)) is “does not reappear or if it does it does so only very slowly over many days”. Further, the “amount of binding site after 24 additional hours” value in [1] (same leaves re-assayed without retreating with DACP) is on record as “appears to remain constant”. Also, in [1] (two hours DACP in the dark, aired one hour, then light), the “amount of binding site inactivated, prebound DACP versus DACP present during the light treatment” value is “No difference”. Besides, in data set [2] (448 lux, presaturated site (FIG. 3)), the “time in which most of the light reaction has occurred” value is at most 30 min. For the same compound, the “Binding (% of untreated control), Mung bean sprouts, Dark” value in data set [2] is given as 100 % of untreated control. The “Binding (% of untreated control), Mung bean sprouts, Light” value in data set [2] is on record as 24 % of untreated control. In addition, the “time in which most of the decrease in binding occurs (diffusion to the binding site)” value in data set [2] (after release as a liquid (FIG. 3)) was at most 15 min. The “time for 1/2 of the binding site to be regenerated” value in data set [2] (in darkness, 245 μl/l (gas) DACP (FIG. 2B)) is listed as “about two”. In addition, the “% of Control” value in the data set on mung bean seedlings (setting [3]) is given as 16 % of Control; with mung bean seedlings (setting [4]) it was 94 % of Control; in the data set with mung bean seedlings (setting [5]), 80 % of Control; in the data set with mung bean seedlings (setting [6]), 53 % of Control; with mung bean seedlings (LIGHT, DACP 120 ul/l + 1000 μl/l E, 14400 min), 3.6 % of Control; in the data set with mung bean seedlings (setting [7]), 93 % of Control. For the same compound, the “Height (cm)” value in the data set on mung bean seedlings (setting [3]) is 1.5 cm; in the data set with mung bean seedlings (setting [4]), 9.0 cm; with mung bean seedlings (setting [5]) it was 7.6 cm; in the data set with mung bean seedlings (setting [6]) it was 5.0 cm; in the data set on mung bean seedlings (LIGHT, DACP 120 ul/l + 1000 μl/l E), 2.3 cm; with mung bean seedlings (setting [7]), 8.9 cm. Moreover, the “time by which all of the tomatoes were nearly ripe” value in the data set on Tomato fruit (DACP in the light) is on record as at most 25 days. The “ratio of red to green” value with Tomato fruit (single exposure in the light, whether or not 1000 μl/l of ethylene was present (FIG. 8)) is on record as “remained constant for ten days”. In the data set on Tomato fruit (DACP applied in the dark), the effect on ripening entry is listed as “only a small effect”. Besides, the “time to ripe as indicated by the red/green ratio” value in the data set on Tomato fruit (DACP applied in the dark) was “ripe in ten days”. The “longevity of the flower” value with Cut purple petunias is “found to increase”; in the data set on Carnation it was “likewise found to increase”. Also, the “signs of injury from DACP” value in the data set with Potted poinsettia is “No signs of injury”. Further, the “death of the flowers (cyanthum) in response to ethylene” value in the data set with Potted poinsettia (then exposed to ethylene) is given as “died in response to the ethylene in the controls but not on the DACP treated plants”. Besides, the ethylene-induced leaf abscission result with beans was “found to prevent ethylene-induced leaf abscission”.

As for `C=C` [Ethylene], in data set [1], the “Binding (% of untreated control), Tobacco leaves, Dark” value was 100 % of untreated control and the “Binding (% of untreated control), Tobacco leaves, Light” value is reported as 100 % of untreated control. Besides, in [2], the “Binding (% of untreated control), Mung bean sprouts, Dark” value was 100 % of untreated control and the “Binding (% of untreated control), Mung bean sprouts, Light” value was 100 % of untreated control. For the same compound, in the data set with mung bean seedlings (DARK, 10 μl/l E), the “% of Control” value is given as 16 % of Control and the “Height (cm)” value stood at 1.5 cm. Further, in the data set on mung bean seedlings (LIGHT, 10 μl/l E), the “% of Control” value is on record as 16 % of Control and the “Height (cm)” value is 1.5 cm. In the data set on mung bean seedlings (LIGHT, 1000 μl/l E), the “% of Control” value is 16 % of Control and the “Height (cm)” value is 1.5 cm. Further, the “1/2 maximum of ethylene for growth inhibition (Lineweaver-Burk plot)” value with mung bean seedlings (after exposure to DACP) amounted to 50 μl/l.

With `C1=CCC=C1` [cyclopentadiene], the “blocking of ethylene binding” value in the data set with ethylene binding is on record as “effective blocking agent for ethylene binding”.
